Assay results as given in patent US10793552B2, “Amino pyrimidine ssao inhibitors” (Eli Lilly and Company, priority 2016, dated 2020).
Like-named read-outs stand apart in the source and are kept apart here.

Assays:
Assay type in all cases: in vivo
SSAO = SSAO (Rattus norvegicus (Rat), UniProt O08590); experiment: SSAO Target Engagement in rat plasma and liver; conditions: for activity at 0.005 mg/kg / activity at 0.025 mg/kg / activity at 0.12 mg/kg / activity at 0.6 mg/kg / activity at 3 mg/kg / activity at 15 mg/kg: mean ± SEM
Procedure: The SSAO activity in rat plasma and liver tissues are measured using the MAO-Glo™ assay kit from Promega (V1402). The residual SSAO activity in rats after compound treatment is estimated by measuring the total amine oxidase activity in plasma or liver lysates that are insensitive to the presence of the MAO inhibitor Clogyline and Pargyline. Rats are administered the compound of Example 2 at the doses of 15, 3, 0.6, 0.12, 0.025, 0.005 mg/kg. The control group is administered with the same volume (2 ml/kg) of the dosing vehicle (hydroxyethyl cellulose 1% w/v, 0.25% Tween 80). Plasma and liver at 2 or 24 hours post compound treatment are harvested and stored at −78° C. until analysis. Tissue lysates are prepared by homogenization in a lysis buffer (20 mM HEPES, pH 7.4, 150 mM NaCl, 1 mM EDTA, 1 mM EGTA, 1% Triton X-100 and 1× Roche Complete protease inhibitor tablet). Tissue particles are removed by centrifugation at 12,000 rpm at 4° C. for 30 minutes. 40 μl of plasma or liver lysates is incubated with Clogyline (10 μM) and Pargyline (10 μM) for 20 minutes at room temperature before the addition of the luminogenic substrate (50 μM) for 60 minutes. The product generated is quantified according to the manufacture's procedure. The fraction of activity that is insensitive to the presence of the MAO inhibitors is used as the surrogate for the residual SSAO activity. The compound of Example 2 was evaluated in the protocol essentially as described above administered at various doses.

[1] = system: C57BL/6N mice fed 3H diet; experiment: Mouse Model of NASH and Fibrosis Induced by 3H Diet; conditions: mouse 3H diet; for Score (0-3) Hepatic inflammation Left / Score (0-3) Macrovesicular vaculation Left / Score (0-3) Perisinusoidal fibrosis Left: left lobe; for Score (0-3) Hepatic inflammation Left / Score (0-3) Macrovesicular vaculation Left / Score (0-3) Perisinusoidal fibrosis Left / Score (0-3) Hepatic inflammation Right / Score (0-3) Macrovesicular vaculation Right / Score (0-3) Perisinusoidal fibrosis Right: mean ± SEM; for Score (0-3) Hepatic inflammation Right / Score (0-3) Macrovesicular vaculation Right / Score (0-3) Perisinusoidal fibrosis Right: right lobe
Procedure: Male C57BL/6N mice are fed with D09100301 diet (Research Diets, 40% fat, 2% cholesterol, 24% fructose, (the, high fat, high cholesterol and high fructose, the “3H diet”) for 150 days. Each mouse is then singly housed after 5 days for an acclimation period. Plasma alanine aminotransferase (ALT) and cytokeratin 18 (CK18) are measured. After one week of recovery, the mice are randomized into 5 groups based on their ALT values, CK18 values, and body weight. […] Blood is collected from mice treated with the compound of Example 6 for 76 days 2 hours after the last dose. Compound levels in the plasma are analyzed by mass spectroscopy. […] At the completion of the study, the animals are sacrificed and their livers excised. Two sections of the left and right lobes are fixed in neutral buffered 10% formalin. Liver tissue slides are stained with hematoxylin and eosin (H&E), Sirius red, and Masson's Trichrome to prepare slides for pathological analysis. All specimens are examined microscopically and scored as a modified Brunt score NASH Activity Score. Scores are based on the grading scheme and end-points as described in Brunt E. M. et al., “Histopathology of nonalcoholic fatty liver disease,” World J. of Gastroenterol, 2010, 16(42), 5286-5296. Group means are then calculated for each individual end-point. The following endpoints are used to characterize the fast food model of NASH in mice as modified from NASH endpoints (See Brunt, E. M. “Histopathology of nonalcoholic fatty liver disease,” Clin Liver Dis., 2009, 13, 533-544 and Brunt, E. M, et al., “Nonalcoholic steatohepatitis: A proposal for grading and staging the histological lesions”, Am J Gastroenterology, 1999, 94(9), 2467-2474.

[2] = Plasma compound levels in 3H diet mice by mass spectroscopy; conditions: mouse, treated 76 days, 2 hours after the last dose, all doses
Procedure: Male C57BL/6N mice are fed with D09100301 diet (Research Diets, 40% fat, 2% cholesterol, 24% fructose, (the, high fat, high cholesterol and high fructose, the “3H diet”) for 150 days. Each mouse is then singly housed after 5 days for an acclimation period. Plasma alanine aminotransferase (ALT) and cytokeratin 18 (CK18) are measured. After one week of recovery, the mice are randomized into 5 groups based on their ALT values, CK18 values, and body weight. Animals of each group are administrated either vehicle (0.5% methylcellulose (MC)+0.25% Tween 80 in distilled water) or the compound of Example 6 (at a 0.06, 2, 6, and 20 mg/kg dose) once daily in a volume of 5 ml/kg for 11 weeks. Blood is collected from mice treated with the compound of Example 6 for 76 days 2 hours after the last dose. Compound levels in the plasma are analyzed by mass spectroscopy.

[3] = liver, 24 hour, n = 6, read-out: SSAO Activity (%) Liver 24 hour
[4] = plasma, 2 hour, n = 6, read-out: SSAO Activity (%) Plasma 2 hour
[5] = plasma, 24 hour, n = 6, read-out: SSAO Activity (%) Plasma 24 hour
[6] = 20 mg/kg once daily 11 weeks, p < 0.05 vs vehicle

Chain of SSAO (O08590 whole entry): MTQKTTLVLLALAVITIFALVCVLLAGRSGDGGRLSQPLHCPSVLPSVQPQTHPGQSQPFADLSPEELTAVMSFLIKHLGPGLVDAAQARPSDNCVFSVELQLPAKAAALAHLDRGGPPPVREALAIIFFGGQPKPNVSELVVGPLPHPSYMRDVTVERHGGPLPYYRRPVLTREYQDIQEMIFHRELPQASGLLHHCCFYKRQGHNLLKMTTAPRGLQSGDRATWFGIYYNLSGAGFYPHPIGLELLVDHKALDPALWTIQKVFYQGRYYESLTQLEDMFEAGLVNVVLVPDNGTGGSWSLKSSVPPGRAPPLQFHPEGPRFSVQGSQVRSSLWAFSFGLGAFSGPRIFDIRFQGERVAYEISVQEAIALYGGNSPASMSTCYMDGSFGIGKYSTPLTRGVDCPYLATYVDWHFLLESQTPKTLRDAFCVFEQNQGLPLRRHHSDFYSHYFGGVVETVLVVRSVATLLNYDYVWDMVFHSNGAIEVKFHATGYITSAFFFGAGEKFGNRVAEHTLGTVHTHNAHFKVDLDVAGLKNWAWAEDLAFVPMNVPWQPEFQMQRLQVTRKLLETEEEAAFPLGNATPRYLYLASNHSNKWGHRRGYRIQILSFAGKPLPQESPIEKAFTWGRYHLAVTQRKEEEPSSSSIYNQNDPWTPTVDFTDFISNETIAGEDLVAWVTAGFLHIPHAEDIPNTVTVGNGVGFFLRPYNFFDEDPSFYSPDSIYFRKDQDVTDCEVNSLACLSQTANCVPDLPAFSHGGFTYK

Cl.Cl.NC/C(=C\F)COc1cnc(N2CCC(O)CC2)nc1 [Example 2, 1-[5-[(E)-2-(Aminomethyl)-3-fluoro-allyloxy]pyrimidin-2-yl]piperidin-4-ol dihydrochloride]
activity at 0.005 mg/kg (SSAO; [3]): 75 ± 18%
activity at 0.005 mg/kg (SSAO; [4]): 31 ± 3%
activity at 0.005 mg/kg (SSAO; [5]): 70 ± 7%
activity at 0.025 mg/kg (SSAO; [3]): 68 ± 14%
activity at 0.025 mg/kg (SSAO; [4]): 21 ± 1%
activity at 0.025 mg/kg (SSAO; [5]): 55 ± 9%
activity at 0.12 mg/kg (SSAO; [3]): 45 ± 8%
activity at 0.12 mg/kg (SSAO; [4]): 7 ± 1%
activity at 0.12 mg/kg (SSAO; [5]): 35 ± 4%
activity at 0.6 mg/kg (SSAO; [3]): 16.2 ± 2.9%
activity at 0.6 mg/kg (SSAO; [4]): 4.3 ± 0.8%
activity at 0.6 mg/kg (SSAO; [5]): 16.3 ± 2.6%
activity at 3 mg/kg (SSAO; [3]): 7.1 ± 1.7%
activity at 3 mg/kg (SSAO; [4]): 3.6 ± 1%
activity at 3 mg/kg (SSAO; [5]): 8.8 ± 1.3%
activity at 15 mg/kg (SSAO; [3]): 9.6 ± 2.6%
activity at 15 mg/kg (SSAO; [4]): -0.6 ± 0.3%
activity at 15 mg/kg (SSAO; [5]): 6.6 ± 1.8%
inhibition of SSAO activity in rat plasma and liver (SSAO; doses 0.005 to 15 mg/kg): dose-dependently inhibits SSAO activity

Cl.Cl.NC/C(=C\F)COc1cnc(N2CC[C@H](O)C2)nc1 [Example 6, (3S)-1-[5-[(E)-2-(Aminomethyl)-3-fluoro-allyloxy]pyrimidin-2-yl]pyrrolidin-3-ol; Dihydrochloride]
Score (0-3) Hepatic inflammation Left ([1]; 0.6 mg/kg once daily 11 weeks): 2.6 ± 0.1
Score (0-3) Macrovesicular vaculation Left ([1]; 0.6 mg/kg once daily 11 weeks): 2.5 ± 0.1
Score (0-3) Perisinusoidal fibrosis Left ([1]; 0.6 mg/kg once daily 11 weeks): 2.4 ± 0.2
Score (0-3) Hepatic inflammation Right ([1]; 0.6 mg/kg once daily 11 weeks): 2.5 ± 0.1
Score (0-3) Macrovesicular vaculation Right ([1]; 0.6 mg/kg once daily 11 weeks): 2.6 ± 0.1
Score (0-3) Perisinusoidal fibrosis Right ([1]; 0.6 mg/kg once daily 11 weeks): 1.9 ± 0.2
Score (0-3) Hepatic inflammation Left ([1]; 2 mg/kg once daily 11 weeks): 2.5 ± 0.1
Score (0-3) Macrovesicular vaculation Left ([1]; 2 mg/kg once daily 11 weeks): 2.5 ± 0.1
Score (0-3) Perisinusoidal fibrosis Left ([1]; 2 mg/kg once daily 11 weeks): 2.5 ± 0.2
Score (0-3) Hepatic inflammation Right ([1]; 2 mg/kg once daily 11 weeks): 2.6 ± 0.1
Score (0-3) Macrovesicular vaculation Right ([1]; 2 mg/kg once daily 11 weeks): 2.7 ± 0.1
Score (0-3) Perisinusoidal fibrosis Right ([1]; 2 mg/kg once daily 11 weeks): 1.8 ± 0.2
Score (0-3) Hepatic inflammation Left ([1]; 6 mg/kg once daily 11 weeks): 2.5 ± 0.2
Score (0-3) Macrovesicular vaculation Left ([1]; 6 mg/kg once daily 11 weeks): 2.9 ± 0.1
Score (0-3) Perisinusoidal fibrosis Left ([1]; 6 mg/kg once daily 11 weeks): 2.6 ± 0.2
Score (0-3) Hepatic inflammation Right ([1]; 6 mg/kg once daily 11 weeks): 2.6 ± 0.2
Score (0-3) Macrovesicular vaculation Right ([1]; 6 mg/kg once daily 11 weeks): 2.7 ± 0.1
Score (0-3) Perisinusoidal fibrosis Right ([1]; 6 mg/kg once daily 11 weeks): 2.1 ± 0.3
hepatic inflammation (in words) ([1]; 20 mg/kg): significant decrease
macrovesicular vaculation (in words) ([1]; 20 mg/kg): significant decrease
perisinusoidal fibrosis (in words) ([1]; 20 mg/kg): significant decrease
Score (0-3) Macrovesicular vaculation Left ([1]; 20 mg/kg once daily 11 weeks): 2.4 ± 0.2
Score (0-3) Perisinusoidal fibrosis Left ([1]; 20 mg/kg once daily 11 weeks): 1.9 ± 0.2
Score (0-3) Hepatic inflammation Left ([1]; 20 mg/kg once daily 11 weeks, p < 0.01 vs vehicle): 2.1 ± 0.1
Score (0-3) Hepatic inflammation Right [1, 6]: 2.1 ± 0.1
Score (0-3) Macrovesicular vaculation Right [1, 6]: 2.3 ± 0.1
Score (0-3) Perisinusoidal fibrosis Right [1, 6]: 1.5 ± 0.2
triglyceride levels in blood (in words) ([1]; 6 and 20 mg/kg): decreased triglyceride levels
ALT (in words) ([1]; all treated groups): significant decrease
plasma compound levels (in words) [2]: dose-dependent increase
